Literature values, collected in patent publication US8283180B2, “Periodic acid-schiff staining with detection in the infrared range” (Amicus Therapeutics, Inc., priority 2007, dated 2012).

Key:
[1] = tested on: Japanese medaka (Oryzias latipes); conditions: low DCA exposure concentrations; as early as week two of exposure

Molecule | carcinogenicity (rats) | carcinogenicity (mice) | changes in the liver [1] | left-ventricular mass index (infantile Pompe disease) | motor function by the Alberta Infant Motor Scale (AIMS) (infantile Pompe disease; unblinded assessment)
O=C(O)C(Cl)Cl [DCA, dichloroacetic acid] | carcinogenic | carcinogenic | marked hepatocellular cytoplasmic vacuolation, cytomegaly, karyomegaly, nuclear atypia and multifocal areas of hepatocellular necrosis and loss |  | 
Myozyme: enzyme replacement therapy with recombinant α-glucosidase, approved for infantile Pompe disease |  |  |  | improved with treatment | did not improve with treatment
